Source: a compilation of properties of binary mixtures (doi:10.1021/acs.jced.8b00334)

Assay: xn = mol fraction of the nth substance listed
Details: 101.3 kPa

CCCCC[P+](CC)(CC)CC.O=S(=O)([N-]S(=O)(=O)C(F)(F)F)C(F)(F)F + CCCCC[N+](CC)(CC)CC.O=S(=O)([N-]S(=O)(=O)C(F)(F)F)C(F)(F)F
x2 = 0
Details	viscosity [mPa·s]
288.15 K	150
293.15 K	113
298.15 K	87
303.15 K	69
308.15 K	55
313.15 K	44.5
318.15 K	36.6
328.15 K	25.6
333.15 K	21.8
338.15 K	18.7
343.15 K	16.2
348.15 K	14.2
353.15 K	12.5

CCC[N+](C)(C)C.O=S(=O)([N-]S(=O)(=O)C(F)(F)F)C(F)(F)F + CCC[N+]1(C)CCCC1.O=S(=O)([N-]S(=O)(=O)C(F)(F)F)C(F)(F)F
viscosity [mPa·s]
Details	x1 = 0.2	x1 = 0.4	x1 = 0.6	x1 = 0.8	x1 = 1
283.15 K	129	–	–	160	–
288.15 K	101	104	–	121	–
293.15 K	78	–	88	94	102
298.15 K	63	65	70	74	79
303.15 K	51	52	56	–	63
308.15 K	–	43.1	–	48.3	51
313.15 K	35.2	35.9	–	39.9	42
318.15 K	29.8	30.3	32.1	–	35
323.15 K	25.5	25.8	27.3	–	–
328.15 K	–	–	23.4	–	25.2
333.15 K	–	–	–	20.9	–
338.15 K	16.8	16.9	17.7	18.2	18.8
343.15 K	14.8	–	15.6	16	16.5
348.15 K	13.2	–	13.8	14.2	14.6
353.15 K	–	11.9	–	12.6	12.9

CCCCC[N+](CC)(CC)CC.O=S(=O)([N-]S(=O)(=O)C(F)(F)F)C(F)(F)F + CCCCC[P+](CC)(CC)CC.O=S(=O)([N-]S(=O)(=O)C(F)(F)F)C(F)(F)F
viscosity [mPa·s]
Details	x1 = 0.2	x1 = 0.4	x1 = 0.6	x1 = 0.8	x1 = 1
283.15 K	229	266	316	386	479
288.15 K	168	192	225	270	329
293.15 K	126	143	165	194	233
298.15 K	97	108	–	144	169
303.15 K	75	84	94	109	–
308.15 K	60	66	74	84	96
313.15 K	48.3	53	58	66	75
318.15 K	–	42.9	47.2	53	60
323.15 K	32.7	35.4	38.6	42.9	48
328.15 K	27.4	29.5	32.1	35.4	39.3
333.15 K	23.2	24.9	26.9	29.5	32.6
338.15 K	19.9	21.2	–	24.9	27.4
343.15 K	17.2	18.3	19.6	21.3	–
348.15 K	15	15.9	16.9	–	19.9
353.15 K	–	13.9	14.8	15.9	–

CCC[N+]1(C)CCCCC1.O=S(=O)([N-]S(=O)(=O)C(F)(F)F)C(F)(F)F + CCC[N+](C)(C)C.O=S(=O)([N-]S(=O)(=O)C(F)(F)F)C(F)(F)F
x2 = 0
Details	viscosity [mPa·s]
283.15 K	397
288.15 K	277
308.15 K	87
318.15 K	55
323.15 K	45.1
328.15 K	37.3
333.15 K	31.4
348.15 K	19.8
353.15 K	17.3

CCC[N+]1(C)CCCC1.O=S(=O)([N-]S(=O)(=O)C(F)(F)F)C(F)(F)F + CCC[N+](C)(C)C.O=S(=O)([N-]S(=O)(=O)C(F)(F)F)C(F)(F)F
x2 = 0
Details	viscosity [mPa·s]
283.15 K	126
288.15 K	97
293.15 K	76
303.15 K	50
308.15 K	41.1
313.15 K	34.4
318.15 K	29.2
323.15 K	25
328.15 K	21.6
333.15 K	18.8
338.15 K	16.6
343.15 K	14.7
348.15 K	13.1
353.15 K	11.7

CCC[N+](C)(C)C.O=S(=O)([N-]S(=O)(=O)C(F)(F)F)C(F)(F)F + CCC[N+]1(C)CCCCC1.O=S(=O)([N-]S(=O)(=O)C(F)(F)F)C(F)(F)F
viscosity [mPa·s]
Details	x1 = 0.2	x1 = 0.4	x1 = 0.6	x1 = 0.8	x1 = 1
283.15 K	340	292	–	–	179
288.15 K	240	209	180	149	133
293.15 K	175	154	–	–	102
298.15 K	131	117	103	88	79
303.15 K	101	90	80	70	63
308.15 K	78	–	–	56	51
313.15 K	62	57	51	–	42
318.15 K	51	–	–	38	35
323.15 K	41.5	38.4	35.2	31.8	29.5
328.15 K	34.6	32.1	29.6	27	25.2
333.15 K	29.1	27.2	25.3	23.2	21.7
338.15 K	24.8	23.3	21.7	20	18.8
343.15 K	21.4	–	18.9	–	16.5
348.15 K	18.6	17.6	16.5	–	–
353.15 K	16.3	15.4	14.6	13.6	12.9
